Laboratory results published in US5409950A, “Cyclic ketal derivatives” (Glaxo Group Limited, priority 1991, dated 1995).

Molecular target: T1, squalene synthase (Rattus norvegicus, UniProt Q02769)
T1 construct: incubating rat liver homogenate with various concentrations of the test compound; from tissue; host or cells: rat liver homogenate
T1 sequence (Q02769 1-416): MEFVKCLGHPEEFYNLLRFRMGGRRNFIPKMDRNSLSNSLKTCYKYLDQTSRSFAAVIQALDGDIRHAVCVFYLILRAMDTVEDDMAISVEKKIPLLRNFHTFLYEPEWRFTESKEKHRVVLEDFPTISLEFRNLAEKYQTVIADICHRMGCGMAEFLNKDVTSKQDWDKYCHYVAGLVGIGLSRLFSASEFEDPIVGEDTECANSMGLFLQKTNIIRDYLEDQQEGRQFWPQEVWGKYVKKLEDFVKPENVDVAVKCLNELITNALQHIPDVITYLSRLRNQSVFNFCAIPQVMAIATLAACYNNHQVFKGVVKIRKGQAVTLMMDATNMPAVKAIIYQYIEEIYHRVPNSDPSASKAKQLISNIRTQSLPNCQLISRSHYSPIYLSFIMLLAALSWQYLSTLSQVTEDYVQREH
Assay: Inhibition of squalene synthase in rat liver homogenate
Assay type: biochemical
Details: [2-14C] farnesylpyrophosphate as substrate, 30 minute assay, read-out: IC50 (concentration of compound giving 50% inhibition of [14C] squalene production)
Procedure: Acta, Volume 877, 50-60 (1986) and modified to include measurement of cholesterol by high performance liquid chromatography (h.p.l.c.).
[^14 C] Squalene was separated from unreacted substrate on thin layer chromatography plates and determined by liquid scintillation counting. Inhibition of squalene synthase was quantified by incubating rat liver homogenate with various concentrations of the test compound in the presence of [2-^14 C] farnesylpyrophosphate. The concentration of compound giving 50% inhibition of [^14 C] squalene production in a 30 minute assay was taken as the IC50 value.

IC50, < 100 nM:
C=C(CC[C@]12O[C@H](C(=O)O)[C@@](O)(C(=O)O)[C@](C(=O)O)(O1)[C@H](OC(=O)CC(O)C(C)CC(C)CC)[C@H]2O)[C@@H](O)[C@H](C)Cc1ccccc1 (some centres unmarked) [Compound M]
C=C(CC[C@@]12C[C@@H](OC(=O)/C=C/[C@@H](C)C[C@@H](C)CC)[C@@](C(=O)O)(O1)[C@](O)(C(=O)O)[C@@H](C(=O)O)O2)[C@@H](OC(C)=O)[C@H](C)Cc1ccccc1 [Compound O, [1S-[1α(4R*,5S*),3α,4β,5α,6α(2E,4R*,6R*)]]1-4-acetyloxy-5-methyl-3-methylene-6-phenylhexyl)-4,6-dihydroxy-2,8-dioxabicyclo[3.2.1]octane-3,4,5-tricarboxylic acid, 6-(4,6-dimethyl-2-octenoate)]
C=C(CC[C@]12O[C@H](C(=O)O)[C@@](O)(C(=O)O)[C@](C(=O)O)(O1)[C@H](OC(=O)/C=C/[C@@H](C)C[C@@H](C)CC)[C@H]2O)[C@@H](O)[C@H](C)Cc1ccccc1 [Compound B, [1S-[1α(4R*,5S*),3α,4β,5α,6α(2E,4R*,6R*),7 β9]1-(4-hydroxy-5-methyl-3-methylene-6-phenylhexyl)-4,6,7-trihydroxy-2,8-dioxabicyclo[3.2.1]octane-3,4,5-tricarboxylic acid, 6-(4,6-dimethyl-2-octenoate)]
C=C(CC[C@]12O[C@H](C(=O)OC)[C@@](O)(C(=O)O)[C@](C(=O)O)(O1)[C@H](OC(=O)/C=C/[C@@H](C)C[C@@H](C)CC)[C@H]2O)[C@@H](O)[C@H](C)Cc1ccccc1 [Compound E, [1S-[1α(4R*,5S*),3α,4β,5α,6α(2E,4R*,6R*),7β]]1-(4-hydroxy-5-methyl-3-methylene-6-phenylhexyl)-4,6,7-trihydroxy-2,8-dioxabicyclo[3.2.1]octane-3,4,5-tricarboxylic acid, 6-(4,6-dimethyl-2-octenoate), 3-methyl ester]
C=C(CC[C@]12O[C@H](C(=O)O)[C@@](O)(C(=O)O)[C@](C(=O)O)(O1)[C@H](OC(=O)/C=C/C(C)CCCC)[C@H]2O)[C@@H](OC(C)=O)[C@H](C)Cc1ccccc1 (some centres unmarked) [Compound G]
C=C(CC[C@]12O[C@H](C(=O)O)[C@@](O)(C(=O)O)[C@](C(=O)O)(O1)[C@H](OC(=O)/C=C/[C@@H](C)C[C@@H](C)CC)[C@H]2O)C(NC(C)=O)C(C)Cc1ccccc1 (some centres unmarked) [Compound B1]
C=C(CC[C@]12O[C@H](C(=O)O)[C@@](O)(C(=O)O)[C@](C(=O)O)(O1)[C@H](OC(=O)/C=C/[C@@H](C)C[C@@H](C)CC)[C@H]2O)C(O)C(CO)Cc1ccccc1 (some centres unmarked) [Compound N]
C=C(CC[C@]12O[C@H](C(=O)O)[C@@](O)(C(=O)O)[C@](C(=O)O)(O1)[C@H](OC(=O)CC(O)CCC(C)CC)[C@H]2O)[C@@H](OC(C)=O)[C@H](C)Cc1ccccc1 (some centres unmarked) [Compound L]
C=C(CC[C@]12O[C@H](C(=O)O)[C@@](O)(C(=O)O)[C@](C(=O)O)(O1)[C@H](OC(=O)CCC(C)CC(C)CC)[C@H]2O)[C@@H](OC(C)=O)[C@H](C)Cc1ccccc1 (some centres unmarked) [Compound U]
C=C(CC[C@]12O[C@H](C(=O)O)[C@@](O)(C(=O)O)[C@](C(=O)O)(O1)[C@H](OC(=O)/C=C/C(C)=C/C(C)CC)[C@H]2O)[C@@H](OC(C)=O)[C@H](C)Cc1ccccc1 (some centres unmarked) [Compound H]
CC[C@H](C)C[C@H](C)/C=C/C(=O)O[C@@H]1[C@@H](O)[C@@]2(CC/C(=C\C(C)Cc3ccccc3)CNC(C)=O)O[C@H](C(=O)O)[C@@](O)(C(=O)O)[C@]1(C(=O)O)O2 (some centres unmarked) [Compound T]
C=C(CC[C@]12O[C@H](C(=O)O)[C@@](O)(C(=O)O)[C@](C(=O)O)(O1)[C@H](OC(=O)/C=C/C(C)(O)CC(C)CC)[C@H]2O)[C@@H](OC(C)=O)[C@H](C)Cc1ccccc1 (some centres unmarked) [Compound K]
C=C(CC[C@@]12O[C@H](C(=O)O)[C@@](O)(C(=O)O)[C@@](C(=O)O)(C[C@H]1O)O2)[C@@H](OC(C)=O)[C@H](C)Cc1ccccc1 [Compound V, [1S-[1α(4R*,5S*),3α,4β,5α,7β]]1-(4-acetyloxy-5-methyl-3-methylene-6-phenylhexyl)-4,7-dihydroxy-2,8-dioxabicyclo[3.2.1]octane-3,4,5-tricarboxylic acid]
C=C(CC[C@]12O[C@H](C(=O)O)[C@@](O)(C(=O)O)[C@](C(=O)O)(O1)[C@H](OC(=O)/C=C/C(C)(O)CC(C)CC)[C@H]2O)[C@@H](O)[C@H](C)Cc1ccccc1 (some centres unmarked) [Compound C1]
C=C(CC[C@]12O[C@H](C(=O)O)[C@@](O)(C(=O)O)[C@](C(=O)O)(O1)[C@H](OC(=O)CC(O)C(C)CC(C)CC)[C@H]2O)[C@@H](OC(C)=O)[C@H](C)Cc1ccccc1 (some centres unmarked) [Compound I]
CC[C@H](C)C[C@H](C)/C=C/C(=O)O[C@@H]1[C@@H](O)[C@@]2(CC/C(C)=C/C(C)Cc3ccccc3)O[C@H](C(=O)O)[C@@](O)(C(=O)O)[C@]1(C(=O)O)O2 (some centres unmarked) [Compound A1]
C=C(CC[C@]12O[C@H](C(=O)O)[C@@](O)(C(=O)O)[C@](C(=O)O)(O1)[C@H](OC(=O)CC(O)CCC(C)CC)[C@H]2O)[C@@H](O)[C@H](C)Cc1ccccc1 (some centres unmarked) [Compound W]
